For one data set, the system named is GNMT cell pool. In words: Sequential batch culture of GNMT cell pool with or without BME. As to conditions: cysteine-free CD-CHO, 50 uM BME, within one passage, FIG. 8. In kind it is cell-based, Chinese hamster. How it is done: (§1) GNMT cell pools and CBS+CTH cell pools that had been adapted to grown in cysteine-free and homocysteine-free conditions as described in Example 7 were cultivated in 3-day or 4-day sequential batch cultures in cysteine-free CD-CHO media with or without 50 uM BME with the aim of testing the growth and adapting the cells to BME free conditions.

In another data set the test system is CBS+CTH cell pool. Nature of the data set: Sequential batch culture of CBS+CTH cell pool with or without BME. In kind it is cell-based, Chinese hamster. As to conditions: cysteine-free CD-CHO, 50 uM BME, FIG. 8. Here is the method: as §1
The subject of the next data set is GNMT clone 16. In words: Batch shake flask maintenance culture with oleic acid and ferroptosis inducers, GNMT clone 16. As to conditions: for Viability / Viable Cell Density: Clone 16; for Growth and viability in iron and zinc supplemented cultures compared to untreated: 12 uM ferrous sulphate, 10 uM zinc sulfate, with or without prior OA. Here is the method: (§2) Two GNMT clones, clone 9 and 16, were cultivated for two passages in cysteine-free CD-CHO medium with and without oleic acid. In the oleic acid supplemented conditions, first passage received 1 micromolar (uM) of oleic acid and the second passage received 10 uM of oleic acid. In the third passage, the clones were cultivated in absence of OA but growth in presence of ferroptosis inducers, iron (12 uM ferrous sulphate) and zinc (10 uM zinc sulfate) to understand impact of prior culture in OA on ferroptosis.

A further data set relates to GNMT clone 9. Nature of the data set: Batch shake flask maintenance culture with oleic acid and ferroptosis inducers, GNMT clone 9. As to conditions: for Viability / Viable Cell Density: Clone 9. How it is done: as §2
Another data set concerns GNMT clone 15. In words: pH-adjusted fedbatch culture with Fer1, OA or Vitamin K1, GNMT clone 15. In kind it is cell-based, Chinese hamster. The conditions noted are these: for Viabilities by the end of the culture, treated versus untreated: 1 uM Fer1 or 10 uM OA on days 0, 5 and 6, FIG. 11A. How it is done:
(§3) Two GNMT clones (overexpressing CBS, CTH and GNMT), clone 15 and 19, were cultivated in pH-adjusted fedbatch cultures in multiple shake flasks. Cells were seeded at 0.5E6 cell/mL in cysteine-free internal basal medium and were fed with 1% cysteine-free, nutrient rich medium daily starting day 4. For the first set of shake flasks, cultures for each clone were treated with 1 uM of Fer1 or 10 uM of OA on days 0, 5 and 6, or left untreated. For the second set of shake flasks, cultures for each clone were treated with 10 uM of Vitamin K1 on days, 0, 4, 5 and 6. Viable cell densities and viabilities were measured on various days during the fedbatch culture.

Data set [1] has as its system CBS+CTH cells (CHO cell pools overexpressing CBS and CTH). Nature of the data set: Growth of CBS+CTH cell pool in L-homocysteine supplemented cysteine free CD CHO medium. In kind it is cell-based, Chinese hamster. The conditions noted are these: FIG. 4. Here is the method:
(§4) Next, the growth of CHO cell pools overexpressing CBS and CTH (referred to as “CBS+CTH” cells) or overexpressing CBS, CTH and GNMT (referred to as “GNMT” cells) was evaluated in cysteine free CD CHO medium or L-homocysteine supplemented cysteine free CD CHO medium. […] Subsequently, as described in more detail in Example 7, the CBS+CTH and the GNMT cell pools were adapted to grow in L-homocysteine free conditions. For both the CBS+CTH and GNMT cell pools, gene expression levels of CTH, CBS, GNMT and MTR were measured before and after adaptation to L-homocysteine free conditions (Table 5).

The subject of data set [2] is GNMT cells (CHO cell pools overexpressing CBS, CTH and GNMT). In words: Growth of GNMT cell pool in L-homocysteine supplemented cysteine free CD CHO medium. In kind it is cell-based, Chinese hamster. As to conditions: FIG. 4. Here is the method:
as §4

Another data set has as its system GNMT clone 19. In words: pH-adjusted fedbatch culture with Fer1, OA or Vitamin K1, GNMT clone 19. In kind it is cell-based, Chinese hamster. The conditions noted are these: 10 uM Vitamin K1 on days 0, 4, 5 and 6, FIG. 11B. Here is the method:
as §3

Where [3] appears, read: +10 uM OA (prior passages), Day 0, CD CHO alone, + 12 uM FeSO4 or + 10 uM ZnSO4.
The mark [4] stands for this setting: +10 uM OA (prior passages), Day 3, CD CHO alone, + 12 uM FeSO4 or + 10 uM ZnSO4.
Setting [5] is: +10 uM OA (prior passages), Day 4, CD CHO alone, + 12 uM FeSO4 or + 10 uM ZnSO4.
The mark [6] stands for this setting: No OA, Day 0, CD CHO + 12 uM FeSO4 or + 10 uM ZnSO4.
[7] abbreviates: No OA, Day 3, CD CHO + 12 uM FeSO4 or + 10 uM ZnSO4.
The mark [8] stands for this setting: No OA, Day 4, CD CHO + 12 uM FeSO4 or + 10 uM ZnSO4.

For `OCCS` [BME, beta mercaptoethanol], the “Growth and viability in BME free conditions versus with BME” value with GNMT cell pool is recorded as “comparable”. Moreover, the “Growth and viabilities between BME-free and BME containing conditions” value with CBS+CTH cell pool was “significantly different growth and viabilities”.
For `O=S(=O)([O-])[O-].[Fe+2]` [FeSO4, ferrous sulphate], the Viability is recorded as 99.6% in the data set on GNMT clone 16 (setting [3]); 98.6% in the data set with GNMT clone 16 (setting [4]); 99.2% with GNMT clone 16 (setting [5]); 98.7% with GNMT clone 16 (setting [6]); 98.5% with GNMT clone 16 (setting [7]); 99.1% with GNMT clone 16 (setting [8]). The Viability with GNMT clone 9 (setting [3]) is listed as 99.6%; in the data set with GNMT clone 9 (setting [4]), 99.2%; with GNMT clone 9 (setting [5]), 99.1%; in the data set on GNMT clone 9 (setting [6]), 100%; in the data set on GNMT clone 9 (setting [7]) it was 99.2%; in the data set on GNMT clone 9 (setting [8]), 99.3%. Also, the “Viable Cell Density” value with GNMT clone 16 (setting [3]) is 3.63 E5 c/mL; in the data set with GNMT clone 16 (setting [4]) it was 19.21 E5 c/mL; with GNMT clone 16 (setting [5]), 40.8 E5 c/mL; in the data set with GNMT clone 16 (setting [6]), 4.02 E5 c/mL; in the data set with GNMT clone 16 (setting [7]), 14.07 E5 c/mL; in the data set with GNMT clone 16 (setting [8]) it was 31.09 E5 c/mL. The “Viable Cell Density” value in the data set on GNMT clone 9 (setting [3]) is 3.45 E5 c/mL; in the data set on GNMT clone 9 (setting [4]) it was 21.94 E5 c/mL; in the data set on GNMT clone 9 (setting [5]) it was 38.38 E5 c/mL; in the data set with GNMT clone 9 (setting [6]) it was 3.54 E5 c/mL; in the data set with GNMT clone 9 (setting [7]) it was 19.65 E5 c/mL; with GNMT clone 9 (setting [8]) it was 39.74 E5 c/mL. For the same compound, the “Growth and viability in iron and zinc supplemented cultures compared to untreated” value in the data set on GNMT clone 16 (clone 16, third passage) is “lower”.
In the case of `CCOC(=O)c1ccc(NC2CCCCC2)c(N)c1` [Fer1, ferrostatin 1], the “Viabilities by the end of the culture, treated versus untreated” value in the data set on GNMT clone 15 is “slightly higher viabilities”.
As for `NC(CCS)C(=O)O` [L-homocysteine, 2-amino-4-sulfanylbutanoic acid], the “Growth in L-homocysteine supplemented cysteine free medium” value in data set [1] and in data set [2] was “exhibited growth” each time.
For the compound `CCCCCCCC/C=C\CCCCCCCC(=O)O` [OA, oleic acid], the “Viable Cell Density” value in the data set with GNMT clone 16 (setting [3]) is 4.44 E5 c/mL; in the data set on GNMT clone 16 (setting [4]), 22.52 E5 c/mL; with GNMT clone 16 (setting [5]), 48.33 E5 c/mL; in the data set with GNMT clone 9 (setting [3]), 3.85 E5 c/mL; in the data set with GNMT clone 9 (setting [4]), 21.99 E5 c/mL; in the data set on GNMT clone 9 (setting [5]), 42.9 E5 c/mL. Besides, the “Growth and viabilities of OA exposed versus unexposed conditions” value in the data set with GNMT clone 16 (clone 16, third passage, prior passages with 1 uM then 10 uM oleic acid) was “higher growth and viabilities”. Further, the “Viabilities by the end of the culture, treated versus untreated” value with GNMT clone 15 is listed as “slightly higher viabilities”. Also, the “Benefit of exposure to OA on growth and viability” value in the data set on GNMT clone 9 (clone 9, third passage, prior passages with 1 uM then 10 uM oleic acid) was “not observed”.
Take `CC1=C(C/C=C(\C)CCC[C@H](C)CCC[C@H](C)CCCC(C)C)C(=O)c2ccccc2C1=O` [Vitamin K1]: the “Growth and viability with Vitamin K1 supplementation” value with GNMT clone 15 (10 uM Vitamin K1 on days 0, 4, 5 and 6, FIG. 11B) was “improved growth and viability”; in the data set with GNMT clone 19, “improved growth and viability”.
Turning to `O=S(=O)([O-])[O-].[Zn+2]` [ZnSO4, zinc sulfate], the Viability was found to be 99.6% with GNMT clone 16 (setting [3]); 96.2% with GNMT clone 16 (setting [4]); 96% in the data set with GNMT clone 16 (setting [5]); 99.2% with GNMT clone 16 (setting [6]); 94.9% in the data set with GNMT clone 16 (setting [7]); 94.1% in the data set on GNMT clone 16 (setting [8]). In addition, the Viability is 98.9% in the data set on GNMT clone 9 (setting [3]); 97.7% in the data set on GNMT clone 9 (setting [4]); 96.4% in the data set with GNMT clone 9 (setting [5]); 100% with GNMT clone 9 (setting [6]); 97.9% with GNMT clone 9 (setting [7]); 96.7% in the data set on GNMT clone 9 (setting [8]). The “Viable Cell Density” value with GNMT clone 16 (setting [3]) is on record as 3.84 E5 c/mL; in the data set with GNMT clone 16 (setting [4]), 13.62 E5 c/mL; in the data set with GNMT clone 16 (setting [5]) it was 32.19 E5 c/mL; in the data set on GNMT clone 16 (setting [6]) it was 4.31 E5 c/mL; in the data set with GNMT clone 16 (setting [7]), 12.27 E5 c/mL; in the data set on GNMT clone 16 (setting [8]), 23.99 E5 c/mL. Also, the “Viable Cell Density” value is 3.11 E5 c/mL with GNMT clone 9 (setting [3]); 16.78 E5 c/mL in the data set with GNMT clone 9 (setting [4]); 30.16 E5 c/mL in the data set with GNMT clone 9 (setting [5]); 3.55 E5 c/mL in the data set on GNMT clone 9 (setting [6]); 17.26 E5 c/mL in the data set with GNMT clone 9 (setting [7]); 32.29 E5 c/mL with GNMT clone 9 (setting [8]). The “Growth and viability in iron and zinc supplemented cultures compared to untreated” value in the data set on GNMT clone 16 (clone 16, third passage) is on record as “lower”.

The values above are taken from patent publication US20250304911A1, “CYSTEINE PROTOTROPHY” (Pfizer Inc., priority 2022, published 2025).
